These results are taken from US20190075791A1, “ANTIMICROBIAL SURFACE COATING MATERIAL” (YEDITEPE UNIVERSITESI, priority 2015, published 2019).

Holding throughout (assay): Modified disk diffusion method (chemicals)
Assay type in all cases: cell-based

In one assay the test system is Aspergillus spp. As to conditions: disc diffusion on Potato Dextrose Agar, 72 hours at 25±1 °C, PC = nystatin 30 μg/disc. On the procedure:
(§1) Modified disk diffusion method: Standard NCCLS disc diffusion method was used upon being modified in order to determine the antimicrobial activity of CG, T and ZP on each microorganism that is being tested. The 100 μl solution including 10^8 cfu/ml bacteria, 10^6 cfu/ml yeast and 10^4 spor/ml fungi was prepared with fresh cultures and inoculated with spreading method on Nutrient Agar (NA), Sabouraud Dextrose Agar (SDA) and Potato Dextrose Agar (PDA), respectively. 20 μl of sterile water was dropped on the empty discs, and was immersed into powder triclosan. 20 μl of chlorhexidine gluconate and zinc pyrithione were drawn and impregnated to the empty discs and placed on the inoculated petri dishes. Empty discs with 20 μl drop of sterile water were used as negative control. Ofloxacin (10 μg/disc) and nystatin (30 μg/disc) were used as positive control for bacteria and fungi, respectively. The petri dishes, which were inoculated and on which modified disc diffusion method was applied, were incubated for 24 hours for bacteria and 48 hours for yeasts at 36±1 ° C., and for 72 hours for fungi at 25±1 ° C. […] All tests were repeated at least twice.

The test system of another assay is Candida glabrata. As to conditions: disc diffusion on Sabouraud Dextrose Agar, 48 hours at 36±1 °C, PC = nystatin 30 μg/disc. As to the method: as §1
Assay [1] relates to Vancomycin-resistant Enterococcus (VRE). As to conditions: disc diffusion on Nutrient Agar, 24 hours at 36±1 °C, PC = ofloxacin 10 μg/disc. On the procedure:
as §1

The subject of another assay is Penicillium spp. The following applies: disc diffusion on Potato Dextrose Agar, 72 hours at 25±1 °C, PC = nystatin 30 μg/disc. As to the method:
as §1

Another assay has as its system Fusarium oxysporum. The following applies: disc diffusion on Potato Dextrose Agar, 72 hours at 25±1 °C, PC = nystatin 30 μg/disc. On the procedure:
as §1

The next assay relates to Staphylococcus aureus. The following applies: disc diffusion on Nutrient Agar, 24 hours at 36±1 °C, PC = ofloxacin 10 μg/disc. On the procedure: as §1
The next assay deals with Pseudomonas aeruginosa. The following applies: disc diffusion on Nutrient Agar, 24 hours at 36±1 °C, PC = ofloxacin 10 μg/disc. On the procedure:
as §1

In a further assay the test system is Escherichia coli. As to conditions: disc diffusion on Nutrient Agar, 24 hours at 36±1 °C, PC = ofloxacin 10 μg/disc. As to the method:
as §1

The next assay deals with Candida albicans. As to conditions: disc diffusion on Sabouraud Dextrose Agar, 48 hours at 36±1 °C, PC = nystatin 30 μg/disc. As to the method: as §1
In another assay the test system is Botrytis cinerea. The following applies: disc diffusion on Potato Dextrose Agar, 72 hours at 25±1 °C, PC = nystatin 30 μg/disc. As to the method: as §1
Assay [2] concerns Methicillin-resistant Staphylococcus aureus (MRSA). The following applies: disc diffusion on Nutrient Agar, 24 hours at 36±1 °C, PC = ofloxacin 10 μg/disc. As to the method:
as §1

As to `Oc1cc(Cl)ccc1Oc1ccc(Cl)cc1Cl` [T, Triclosan], the “Antimicrobial activity (inhibition zone)” value in the assay with Aspergillus spp. is given as “−”; in the assay on Candida glabrata, “−”; in assay [1] it was “+”; in the assay on Penicillium spp. it was “−”; in the assay with Fusarium oxysporum, “−”; with Staphylococcus aureus, “+”. For the same compound, the “Antimicrobial activity (inhibition zone)” value with Pseudomonas aeruginosa is listed as “+”; with Escherichia coli, “+”; in the assay with Candida albicans it was “−”; in the assay with Botrytis cinerea, “−”; in assay [2], “+”.

For the compound `N=C(NCCCCCCNC(=N)NC(=N)Nc1ccc(Cl)cc1)NC(=N)Nc1ccc(Cl)cc1.O=C(O)[C@H](O)[C@@H](O)[C@H](O)[C@H](O)CO.O=C(O)[C@H](O)[C@@H](O)[C@H](O)[C@H](O)CO` [CG, Chlorhexidine gluconate], the “Antimicrobial activity (inhibition zone)” value (in the assay with Aspergillus spp.; in the assay on Candida glabrata; in assay [1]; with Penicillium spp.; with Fusarium oxysporum; with Staphylococcus aureus) was “+” each time. Also, the “Antimicrobial activity (inhibition zone)” value (in the assay on Pseudomonas aeruginosa; in the assay on Escherichia coli; with Candida albicans; in the assay with Botrytis cinerea; in assay [2]) was “+” throughout.

On to Zinc Pyrithione [ZP], for which the “Antimicrobial activity (inhibition zone)” value (in the assay with Aspergillus spp.; with Candida glabrata; in assay [1]; in the assay with Penicillium spp.; in the assay with Fusarium oxysporum; with Staphylococcus aureus) was “+” throughout. The “Antimicrobial activity (inhibition zone)” value (in the assay on Pseudomonas aeruginosa; in the assay on Escherichia coli; with Candida albicans; in the assay with Botrytis cinerea; in [2]) was “+” each time.
